According to patent publication US20130324522A1, “INSECT ODORANT RECEPTOR ANTAGONISTS” (THE ROCKEFELLER UNIVERSITY, priority 2010, published 2013):
Read-outs that look alike come from different tables or passages of the source.

Tests used:
Assay type in all cases: cell-based
OR28/OR7 = OR28/OR7 (Anopheles gambiae, UniProt A0A1S4GFY3+Q7QCC7); assay: Ca2+-imaging of stable HEK293T cell line OR28/OR7; details: for inhibition at 4 µM: HEK-293T, read-out: Percent Inhibition OR28 OR7
Procedure, shortened: (§1)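 Stable HEK293T lines: Anopheles ORs co-expressed with co-receptor OR7, or mouse TRPM8 alone. Cells loaded with Ca-4 dye 1.5 hr at room temperature. Compound added with odorant solution in HBSS. Ca2+ rise read as fluorescence at 525 nm (excitation 485 nm).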

OR8/OR7 = OR8/OR7 (Anopheles gambiae, UniProt Q7PUT5+Q7QCC7); assay: Ca2+-imaging of stable HEK293T cell line OR8/OR7; details: for inhibition at 4 µM: HEK-293T, read-out: Percent Inhibition OR8 OR7
Procedure, shortened: as §1

Or47a/Or83b = molecular target: T1, Or47a/Or83b (Drosophila melanogaster, UniProt P81921+Q9VNB5); assay: Ca2+-imaging of stable Flip-In T-Rex cell line Or47a/Or83b; details: for inhibition at 4 µM: read-out: Percent Inhibition OR47a OR83b
T1 construct: Full-length cDNAs for mosquito (Anopheles gambiae) odorant receptor (OR1, OR2, OR7, OR8, OR28), and fly (Drosophila melanogaster) odorant receptor (Or47a, Or83b); expressed in transfected cells
T1 sequence (P81921 1-385): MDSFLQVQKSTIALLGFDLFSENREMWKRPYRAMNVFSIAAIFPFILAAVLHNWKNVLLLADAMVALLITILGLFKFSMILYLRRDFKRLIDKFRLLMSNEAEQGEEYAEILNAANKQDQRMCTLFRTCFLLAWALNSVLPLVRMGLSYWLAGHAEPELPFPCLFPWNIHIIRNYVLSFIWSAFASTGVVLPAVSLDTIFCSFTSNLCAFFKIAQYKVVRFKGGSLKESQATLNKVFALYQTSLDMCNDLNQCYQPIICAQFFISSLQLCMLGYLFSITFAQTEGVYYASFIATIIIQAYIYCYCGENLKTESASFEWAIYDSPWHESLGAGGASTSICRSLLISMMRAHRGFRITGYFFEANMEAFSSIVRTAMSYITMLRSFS
T1 sequence (Q9VNB5 1-486): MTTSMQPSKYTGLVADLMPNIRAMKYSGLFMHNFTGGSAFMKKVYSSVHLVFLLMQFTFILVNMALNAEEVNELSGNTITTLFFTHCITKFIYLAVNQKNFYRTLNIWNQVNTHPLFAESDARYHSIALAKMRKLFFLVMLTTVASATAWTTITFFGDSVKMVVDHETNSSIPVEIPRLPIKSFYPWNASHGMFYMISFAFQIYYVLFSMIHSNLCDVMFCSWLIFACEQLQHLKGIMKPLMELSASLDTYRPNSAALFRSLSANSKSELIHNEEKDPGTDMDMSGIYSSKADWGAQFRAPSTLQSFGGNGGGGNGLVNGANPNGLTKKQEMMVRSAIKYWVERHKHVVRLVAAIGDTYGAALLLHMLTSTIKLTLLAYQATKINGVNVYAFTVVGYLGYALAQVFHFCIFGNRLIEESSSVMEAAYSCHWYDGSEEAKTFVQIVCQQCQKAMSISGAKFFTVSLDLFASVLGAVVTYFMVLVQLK
Procedure, shortened: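 Calcium responses were read on an FDSS6000 (485 nm excitation, 525 nm emission) after Ca-4 loading for 1.5 h at room temperature. Cells were tetracycline-induced Flp-In T-REx lines stably carrying fly Or47a/Or83b or mouse 5HT3, plated 2 days ahead; compounds were co-delivered in HBSS odorant solution.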

TRP channel (TRPM8) = molecular target: T2, TRP channel (TRPM8) (Mus musculus, UniProt Q8R4D5); assay: Ca2+-imaging of stable HEK293T cell line TRPM8; details: for inhibition at 4 µM: HEK-293T, read-out: Percent Inhibition TRPM8; for IC50: ligand menthol 300 μM, read-out: IC50 TRPM8
T2 construct: Full-length cDNAs for mosquito (Anopheles gambiae) odorant receptor (OR1, OR2, OR7, OR8, OR28), and fly (Drosophila melanogaster) odorant receptor (Or47a, Or83b), mouse TRP channel (TRPM8); expressed in transfected cells
Procedure, shortened: as §1

[1] = ligand acetophenone 300 μM, read-out: IC50 OR28 OR7
[2] = ligand 1-octen-3-ol 30 μM, read-out: IC50 OR8 OR7
[3] = ligand pentyl acetate 30 μM, read-out: IC50 OR47a OR83b

Chain of OR28/OR7 (A0A1S4GFY3 entry or part of it): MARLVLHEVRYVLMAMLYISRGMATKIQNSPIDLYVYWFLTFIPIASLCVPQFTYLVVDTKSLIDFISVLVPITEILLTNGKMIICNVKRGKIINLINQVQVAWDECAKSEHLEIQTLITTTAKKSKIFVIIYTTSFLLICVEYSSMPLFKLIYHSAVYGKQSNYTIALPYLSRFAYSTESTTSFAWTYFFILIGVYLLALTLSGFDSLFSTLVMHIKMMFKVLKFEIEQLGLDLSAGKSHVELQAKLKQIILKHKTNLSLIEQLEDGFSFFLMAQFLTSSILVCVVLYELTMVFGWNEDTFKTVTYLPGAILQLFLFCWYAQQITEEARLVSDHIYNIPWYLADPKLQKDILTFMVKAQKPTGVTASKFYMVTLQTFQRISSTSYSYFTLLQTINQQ
Chain of OR28/OR7 (Q7QCC7 whole entry): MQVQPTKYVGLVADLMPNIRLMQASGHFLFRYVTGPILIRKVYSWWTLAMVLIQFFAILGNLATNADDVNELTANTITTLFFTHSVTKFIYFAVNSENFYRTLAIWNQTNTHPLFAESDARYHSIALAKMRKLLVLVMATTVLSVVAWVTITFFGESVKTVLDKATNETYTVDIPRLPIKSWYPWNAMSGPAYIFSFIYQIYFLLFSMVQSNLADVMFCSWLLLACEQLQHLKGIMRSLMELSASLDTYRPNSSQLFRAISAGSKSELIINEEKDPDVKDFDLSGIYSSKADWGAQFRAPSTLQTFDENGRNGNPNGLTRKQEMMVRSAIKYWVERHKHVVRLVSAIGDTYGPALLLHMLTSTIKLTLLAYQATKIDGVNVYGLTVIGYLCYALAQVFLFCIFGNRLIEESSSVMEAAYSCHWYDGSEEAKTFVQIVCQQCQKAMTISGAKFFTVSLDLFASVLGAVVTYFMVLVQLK
T2 sequence (Q8R4D5 whole entry): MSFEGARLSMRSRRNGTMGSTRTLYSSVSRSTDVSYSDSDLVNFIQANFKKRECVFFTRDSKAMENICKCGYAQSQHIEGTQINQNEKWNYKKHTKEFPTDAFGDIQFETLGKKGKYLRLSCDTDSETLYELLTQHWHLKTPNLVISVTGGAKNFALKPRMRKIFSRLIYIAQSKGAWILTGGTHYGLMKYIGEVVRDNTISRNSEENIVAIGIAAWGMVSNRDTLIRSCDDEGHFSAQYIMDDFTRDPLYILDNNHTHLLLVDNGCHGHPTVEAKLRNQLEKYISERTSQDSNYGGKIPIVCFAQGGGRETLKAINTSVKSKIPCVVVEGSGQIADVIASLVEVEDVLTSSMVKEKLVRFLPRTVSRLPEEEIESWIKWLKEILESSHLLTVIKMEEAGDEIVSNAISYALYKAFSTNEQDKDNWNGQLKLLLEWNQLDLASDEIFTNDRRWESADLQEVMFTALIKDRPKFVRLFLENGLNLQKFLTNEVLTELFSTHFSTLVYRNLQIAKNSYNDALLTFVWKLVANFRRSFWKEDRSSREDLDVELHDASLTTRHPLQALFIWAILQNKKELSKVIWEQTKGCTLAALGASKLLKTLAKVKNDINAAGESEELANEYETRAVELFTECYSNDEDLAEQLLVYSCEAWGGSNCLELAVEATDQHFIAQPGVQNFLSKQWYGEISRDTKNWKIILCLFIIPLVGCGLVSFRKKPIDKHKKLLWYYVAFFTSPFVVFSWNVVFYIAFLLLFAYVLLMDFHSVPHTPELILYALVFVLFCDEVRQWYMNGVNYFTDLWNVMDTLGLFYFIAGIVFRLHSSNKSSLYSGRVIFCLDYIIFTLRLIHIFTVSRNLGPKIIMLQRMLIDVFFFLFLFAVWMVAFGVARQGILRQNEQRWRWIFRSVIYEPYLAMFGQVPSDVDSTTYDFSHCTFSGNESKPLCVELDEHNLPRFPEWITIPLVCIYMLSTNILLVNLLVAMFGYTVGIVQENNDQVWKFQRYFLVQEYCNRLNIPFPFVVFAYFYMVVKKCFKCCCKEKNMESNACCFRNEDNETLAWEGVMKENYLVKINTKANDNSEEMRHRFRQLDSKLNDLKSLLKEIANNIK
Chain of OR8/OR7 (Q7QCC7 whole entry): as the sequence (Q7QCC7 whole entry) above
Chain of OR8/OR7 (Q7PUT5 entry or part of it): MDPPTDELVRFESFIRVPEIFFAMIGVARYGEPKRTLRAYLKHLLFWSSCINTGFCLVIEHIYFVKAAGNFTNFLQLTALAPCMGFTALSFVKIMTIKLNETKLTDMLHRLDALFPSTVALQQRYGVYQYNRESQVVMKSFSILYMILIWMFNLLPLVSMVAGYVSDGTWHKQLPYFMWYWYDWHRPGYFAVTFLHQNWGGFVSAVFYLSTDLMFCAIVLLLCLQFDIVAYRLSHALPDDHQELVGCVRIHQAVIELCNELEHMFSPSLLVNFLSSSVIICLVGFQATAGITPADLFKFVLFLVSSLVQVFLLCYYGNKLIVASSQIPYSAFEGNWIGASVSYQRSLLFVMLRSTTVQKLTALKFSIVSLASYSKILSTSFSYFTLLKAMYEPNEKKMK

SMILES | inhibition at 4 µM (OR28/OR7; compound applied at 4 μM) | IC50 (OR28/OR7; Table B, read-out: IC50 OR28) | inhibition at 4 µM (OR8/OR7; compound applied at 4 μM) | inhibition at 4 µM (Or47a/Or83b; compound applied at 4 μM) | inhibition at 4 µM (TRP channel (TRPM8); compound applied at 4 μM) | IC50 (Or47a/Or83b; Table B, read-out: IC50 OR47a) | other results
O=C(C1CCC1)N(Cc1ccco1)Cc1nccn1Cc1ccccc1Cl [RU-0048066] | > 75% | < 100 nM | < 25% | 26 to 50% | < 25% |  | 
Cc1ccccc1C(=O)N[C@@H]1CCCCC1NC(=O)C1CCN(C(=O)c2ccc(C(C)(C)C)cc2)CC1 (stereo partly shown) [RU-0045678] | > 75% | < 100 nM | 26 to 50% | 26 to 50% | < 25% |  | 
CCOC(=O)C1CCCN(C(=O)c2csc(CSc3nnc(-c4cccc(OC)c4)n3-c3ccc(C)cc3)n2)C1 (stereo not shown) [RU-0071628] | > 75% | < 100 nM | 26 to 50% | 51 to 74% | < 25% | > 1000 nM | 
Cc1cc(N(C)C2CCCCC2)nc(SCc2cccc(C(=O)N3CCCC3)c2)n1 [RU-0034108] | 26 to 50% |  | < 25% | 26 to 50% | < 25% | > 1000 nM | 
CC(C)N(Cc1nccn1Cc1c(F)cccc1Cl)C(=O)c1ccc(Cl)cc1 [RU-0055364] | > 75% | < 100 nM | 26 to 50% | 26 to 50% | < 25% |  | 
Cc1ccc(-c2nnc(SCCCC(=O)N3CCN(C(=O)c4cccc(F)c4)C(C)C3)n2-c2ccc(C)cc2)cc1 (stereo not shown) [RU-0071789] | > 75% | < 100 nM | < 25% | 26 to 50% | < 25% |  | 
COCCN(Cc1nccn1Cc1c(F)cccc1Cl)C(=O)CCc1ccccc1 [RU-0058550] | > 75% | < 100 nM | < 25% | 26 to 50% | < 25% |  | 
COc1ccccc1C(=O)C1CCCN(C(=O)c2cccc(N3CCOCC3)c2)C1 (stereo not shown) [RU-0029350] | > 75% | 100 to 1000 nM | 26 to 50% | 51 to 74% | 26 to 50% | < 100 nM | IC50 (OR8/OR7; Table B, read-out: IC50 OR8): > 1000 nM
Cc1cccc(NC(=O)CCC2CCN(C(=O)CCOc3ccccc3)CC2)c1 [RU-0030324] | > 75% | < 100 nM | 26 to 50% | 51 to 74% | 26 to 50% | < 100 nM | 
COCCNC(=O)c1ccc(CSc2nnc(-c3ccc(C)cc3)n2-c2ccccc2C)cc1 [RU-0053556] | > 75% | 100 to 1000 nM | 26 to 50% | 26 to 50% | 26 to 50% |  | 
CCN(CC)C(=O)Oc1ccc2c(ccn2Cc2ccc(Cl)cc2)c1NC(=O)C1CC1 [RU-0075475] |  |  |  |  |  |  | IC50 (OR28/OR7): > 1000 nM; inhibition at 4 µM (OR28/OR7): > 75%; inhibition at 4 µM (OR8/OR7): < 25%; inhibition at 4 µM (Or47a/Or83b): < 25%; inhibition at 4 µM (TRP channel (TRPM8)): < 25%
CCNc1nc(NC(C)C)nc(N(C#N)Cc2ccccc2)n1 [RU-0015806] | > 75% | < 100 nM | < 25% | 51 to 74% | 26 to 50% | < 100 nM | 
COc1ccc(-c2cc(-c3ccccc3)n(C(=O)CN3CCN(Cc4ccccc4)CC3)n2)cc1 [RU-0038795] | > 75% | < 100 nM | < 25% | 51 to 74% | < 25% | > 1000 nM | 
COCCCN(Cc1c(-c2ccccc2)noc1N1CCC(C)CC1)C(=O)c1ccccc1F [RU-0036876] | > 75% | < 100 nM | 51 to 74% | 51 to 74% | < 25% | > 1000 nM | IC50 (OR8/OR7; Table B, read-out: IC50 OR8): > 1000 nM
O=C(c1nccn1Cc1c(F)cccc1Cl)N(CC1CCCC1)C1CC1 [RU-I3] |  |  |  |  |  |  | IC50 (OR28/OR7; [1]): < 2000 nM; IC50 (OR8/OR7; [2]): < 2000 nM; IC50 (Or47a/Or83b; [3]): < 2000 nM; IC50 (TRP channel (TRPM8)): > 20000 nM
CCN(CC)C(=O)c1cccc(C)c1 [DEET, N,N-diethyl-m-toluamide, reference compound] |  |  |  |  |  |  | IC50 (OR28/OR7; [1]): > 50000 nM; IC50 (OR8/OR7; [2]): > 50000 nM; IC50 (Or47a/Or83b; [3]): > 50000 nM; IC50 (TRP channel (TRPM8)): > 20000 nM
N#Cc1ccccc1C(=O)N1CCOC(COCc2c(Cl)cccc2Cl)C1 (stereo not shown) [RU-0050405] | > 75% | < 100 nM | 26 to 50% | 51 to 74% | < 25% | > 1000 nM | 
COCCN(Cc1c(-c2ccccc2)noc1N1CCSCC1)CC(O)COCc1ccco1 (stereo not shown) [RU-0037278] | > 75% | < 100 nM | 26 to 50% | 51 to 74% | < 25% | > 1000 nM | 
CCc1cc(N2CCCC2)nc(SCc2ccc(C(=O)N3CCOCC3)o2)n1 [RU-0047568] | > 75% | < 100 nM | 26 to 50% | 26 to 50% | 26 to 50% |  | 
C=CCN(Cc1nccn1Cc1ccccc1F)C(=O)c1cccc(F)c1 [RU-0058232] | > 75% | < 100 nM | 26 to 50% | 26 to 50% | 26 to 50% |  | 
O=C(C1CCCC1)N(Cc1nccn1CCc1c(F)cccc1Cl)C1CC1 [RU-I2] |  |  |  |  |  |  | IC50 (OR28/OR7; [1]): 2000 to 20000 nM; IC50 (OR8/OR7; [2]): 2000 to 20000 nM; IC50 (Or47a/Or83b; [3]): < 2000 nM; IC50 (TRP channel (TRPM8)): > 20000 nM
O=C(CCC1CCN(C(=O)c2cccc(-n3cccn3)c2)CC1)Nc1ccccc1 [RU-0032465] | > 75% | < 100 nM | 51 to 74% | 51 to 74% | 26 to 50% | > 1000 nM | IC50 (OR8/OR7; Table B, read-out: IC50 OR8): > 1000 nM
O=C(c1cccnc1Cl)N1CCOC(COCc2c(Cl)cccc2Cl)C1 (stereo not shown) [RU-0050372] | > 75% | < 100 nM | < 25% | 26 to 50% | < 25% |  | 
